Experiments:
[1] = system: adult male Brown Norway rats; assay: Ovalbumin allergic asthma model, whole body plethysmography (ΔPenh) after methacholine challenge; type: in vivo; conditions: rats, nebulized inhaled drug
Source text: (§1) A modification of the ovalbumin model of allergic asthma and whole body plethysmography protocol as described in Nau et al. (Am. J. Physiol. Lung Cell Mol. Physiol. 2015, 308(2): L191-L198; incorporated herein by reference) was used to determine ΔPenh, a measure of airways hyperresponsiveness (AHR), in response to methacholine challenge in adult male Brown Norway rats. Results, shown in FIGS. 2A-2G, represent PenH change measured in the ovalbumin allergic asthma assay in rats, with the exception of FIG. 2C, which was measured in mice, for nebulized inhaled drug. Statistics were performed using 2-way ANOVA with Tukey post hoc test for multiple comparisons.
Allergic asthma is defined as a chronic inflammatory disorder of the airways. This disease is characterized by airway inflammation, persistent airways AHR and intermittent, reversible airways obstruction.
Area under the curve of PenH values (PenH-AUC) in response to incremental doses of metacholine were calculated for each testing groups, naïve, OVA treated, and OVA+DRUG treated animals. A reduction in PenH-AUC values of more than 75% of the control values (OVA alone) was annotated as a strong efficacy. […] Additional to this information are provided the relative to R-DOI EC50 values (ratio) of tested compounds in 5-HT2AR heterologous cell-based calcium transient assay. […] FIG. 3 illustrates the non-correlative nature of the therapeutic efficacy of the phenylethylamines class of compounds against inflammatory-mediated allergen-induced AHR and the reported evidences of the dose necessary for psychoactive disturbances experienced with these compounds in humans or the potency and strength of these compounds to the 5-HT2AR in calcium transients assays.
Inhibition of ΔPenh as a function of 2C-iBu concentration was studied by nebulization nose-only administration of 2C-iBu to male adult Brown Norway rats as described above. Area under the curve for each treatment group at a given dose of 2C-iBu for ΔPenh is plotted on the Y-axis versus concentration of 2C-iBu on the X-axis.

5-HT2AR-Tango construct = target: T1, 5-HT2AR-Tango construct (Homo sapiens, UniProt P28223); assay: β-arrestin-2 recruitment, PRESTO-Tango assay in HTLA cells; type: cell-based; conditions: for pEC50 beta arrestin recruitment / EMAX (%) beta arrestin recruitment: Table 5; for EMAX (%) beta arrestin recruitment: percentage of 5-HT response
T1 construct: expressed in transfected cells; host or cells: HTLA cells (transient transfection)

human 5-HT2A receptor = target: T2, human 5-HT2A receptor (Homo sapiens, UniProt P28223); assay: Gq-mediated calcium transients (calcium mobilization), Fluo-4, HEK cells; type: cell-based; conditions: for pEC50 calcium mobilization / EMAX (%) calcium mobilization: Table 4; for EMAX (%) calcium mobilization: percentage of 5-HT response; for Emax: HEK293, read-out: EMAX (%) calcium mobilization
T2 construct: expressed in transfected cells

mice = assay: Ovalbumin allergic asthma assay (PenH), nebulized inhaled drug, mice (FIG. 2C); type: in vivo; conditions: 1.0 mg/kg (FIG. 2C)
Source text: as §1

T2 sequence (P28223 whole entry): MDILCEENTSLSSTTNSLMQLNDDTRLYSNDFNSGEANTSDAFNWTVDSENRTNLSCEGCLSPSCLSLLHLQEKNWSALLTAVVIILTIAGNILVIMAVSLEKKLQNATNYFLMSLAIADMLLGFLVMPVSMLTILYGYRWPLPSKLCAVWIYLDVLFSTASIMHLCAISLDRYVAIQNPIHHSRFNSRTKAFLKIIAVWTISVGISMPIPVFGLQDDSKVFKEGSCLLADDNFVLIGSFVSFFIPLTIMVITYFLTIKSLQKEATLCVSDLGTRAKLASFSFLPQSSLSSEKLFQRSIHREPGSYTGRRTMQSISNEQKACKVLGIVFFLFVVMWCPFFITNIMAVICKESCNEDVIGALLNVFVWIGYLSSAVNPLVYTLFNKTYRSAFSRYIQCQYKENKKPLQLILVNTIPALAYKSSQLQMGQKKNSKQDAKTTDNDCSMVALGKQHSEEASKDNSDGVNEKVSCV
T1 sequence (P28223 whole entry, added parts left off): as the sequence (P28223 whole entry) above
T1 sequence (P32121 whole entry partner): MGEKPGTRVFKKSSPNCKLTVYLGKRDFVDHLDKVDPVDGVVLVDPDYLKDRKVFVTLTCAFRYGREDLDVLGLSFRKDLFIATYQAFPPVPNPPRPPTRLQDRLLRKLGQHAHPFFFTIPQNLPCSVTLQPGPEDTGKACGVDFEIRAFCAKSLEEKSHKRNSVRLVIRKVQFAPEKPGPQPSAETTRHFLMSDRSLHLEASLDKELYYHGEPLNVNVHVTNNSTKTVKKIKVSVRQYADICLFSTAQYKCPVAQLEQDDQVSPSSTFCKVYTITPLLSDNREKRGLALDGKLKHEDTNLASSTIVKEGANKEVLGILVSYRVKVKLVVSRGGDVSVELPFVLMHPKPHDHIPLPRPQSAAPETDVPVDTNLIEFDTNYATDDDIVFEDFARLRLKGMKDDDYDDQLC

## Cl.NCCc1c2c(c(Br)c3c1OCC3)OCC2 [2C-B-Fly.HCl]
[1]; 0.5 mg/kg
  Prevention of AHR (ΔPenh/PenH) in response to OVA: significant difference from OVA to naive, and from 2C-B-Fly.HCl+OVA to naive

## COc1cc(CCN)c(OC)cc1Br [2C-B]
5-HT2AR-Tango construct
  pEC50 beta arrestin recruitment: 5.99
  EMAX (%) beta arrestin recruitment: 39.46%
Human 5-HT2A receptor
  pEC50 calcium mobilization: 8.11
  EMAX (%) calcium mobilization: 78.00%

## COc1ccc(OC)c(CCN)c1 [2C-H]
5-HT2AR-Tango construct
  pEC50 beta arrestin recruitment: 7.07
  EMAX (%) beta arrestin recruitment: 10.98%
Human 5-HT2A receptor
  pEC50 calcium mobilization: 6.34
  EMAX (%) calcium mobilization: 69.50%

## COc1cc(CCN)c(OC)cc1I [2C-I]
Human 5-HT2A receptor
  pEC50 calcium mobilization: 8.14
  EMAX (%) calcium mobilization: 72.80%

## COc1cc(CC(C)(C)C)c(OC)cc1CCN [2C-NP]
Human 5-HT2A receptor
  EC50: 155 nM
  Emax: 76%

## COc1cc(C(C)C)c(OC)cc1CCN [2C-iP]
5-HT2AR-Tango construct
  pEC50 beta arrestin recruitment: 7.8
  EMAX (%) beta arrestin recruitment: 3.46%
Human 5-HT2A receptor
  pEC50 calcium mobilization: 7.59
  EMAX (%) calcium mobilization: 52.07%

## COc1cc(CCNCc2ccccc2OC)c(OC)cc1I [25I-NBOMe]
[1]; 1.0 mg/kg
  Prevention of AHR (ΔPenh/PenH) in response to OVA: reduced potency

## COc1cc(CC(C)N)c(OC)cc1Br (stereo not drawn) [DOB]
mice
  Prevention of AHR (PenH) in response to OVA: did not reduce potency

## COc1cc(C(F)(F)F)c(OC)cc1CC(C)N (stereo not drawn) [DOTFM]
[1]; 0.5 mg/kg
  Prevention of AHR (ΔPenh/PenH) in response to OVA: significant difference from OVA+DOTFM to naive

## COc1cc(CC(C)N)c(OC)cc1CC(C)C (stereo not drawn) [DOiBu]
5-HT2AR-Tango construct
  EC50: 5.89 nM
5-HT2AR-Tango construct; HTLA, read-out: EMAX (%) beta arrestin recruitment
  Emax: 70.2%
Human 5-HT2A receptor
  EC50: 4.47 nM
  Emax: 90.6%

## COc1cc(C(C)C)c(OC)cc1CC(C)N (stereo not drawn) [DOiP]
5-HT2AR-Tango construct
  pEC50 beta arrestin recruitment: 8.24
  EMAX (%) beta arrestin recruitment: 20.40%
Human 5-HT2A receptor
  pEC50 calcium mobilization: 8.29
  EMAX (%) calcium mobilization: 73.17%

## COc1ccc(OC)c(C[C@@H](C)N)c1 [R-2,5-DMA]
5-HT2AR-Tango construct
  EMAX (%) beta arrestin recruitment: 65.51%
Human 5-HT2A receptor
  EMAX (%) calcium mobilization: 108.38%

## COc1cc(C[C@@H](C)N)c(OC)cc1Br [R-DOB]
5-HT2AR-Tango construct
  EMAX (%) beta arrestin recruitment: 98.14%
Human 5-HT2A receptor
  EMAX (%) calcium mobilization: 79.80%

## COc1cc(Br)c(OC)c2c1[C@H](CN)C2 [TCB-2]
[1]; 0.5 mg/kg
  Prevention of AHR (ΔPenh/PenH) in response to OVA: reduced PenH, it was still significantly elevated over naive controls

Reference: patent US12398093B2, “Compounds and methods for treating inflammatory disorders” (Board of Supervisors of Louisiana State University and …, priority 2019, dated 2025)
